Values quoted from earlier work in patent US20250261683A1, “ORAL COMPOSITION COMPRISING ENCAPSULATED PH ADJUSTING AGENT” (NICOVENTURES TRADING LIMITED, priority 2022, published 2025).

Experiments:
[1] = descriptive statement
[2] = descriptive statement; isomerizes to trans-bixin

| Structure (SMILES) | solubility in fats and alcohols [1] | solubility in water [1] | chemical stability when isolated [2] |
| --- | --- | --- | --- |
| COC(=O)/C=C/C(C)=C\C=C\C(C)=C\C=C\C=C(C)\C=C\C=C(C)\C=C\C(=O)O [bixin, (2E,4E,6E,8E,10E,12E,14E,16Z,18E)-20-methoxy-4,8,13,17-tetramethyl-20-oxoicosa-2,4,6,8,10,12,14,16,18-nonaenoic acid] | soluble | insoluble | chemically unstable |
| CC(/C=C/C=C(C)/C=C/C(=O)O)=C\C=C\C=C(C)\C=C\C=C(C)\C=C\C(=O)O (stereo in doubt) [norbixin, (2E,4E,6E,8E,10E,12E,14E,16E,18E)-4,8,13,17-tetramethylicosa-2,4,6,8,10,12, 14,16, 18-nonaenedioic acid] |  | water-soluble |  |
